This note sets out measurements from patent publication US10160755B2 (Plexxikon Inc., priority 2015, dated 2018).

Molecules are shown by their SMILES.

The target in one test is c-Kit (Homo sapiens, UniProt P10721). As to the kind of experiment: c-Kit biochemical assay (per US 2007/0032519). The essentials:
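Biochemical kinase inhibition run per US 2007/0032519; values reported as binned IC50 ranges (0.0001–1 μM, 1–10 μM, 10–200 μM).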

The target in a further test is T1, FLT3-ITD (Homo sapiens, UniProt P36888).
T1 construct: FLT3-ITD; Invitrogen #PV6190
T1 sequence (P36888 1-993): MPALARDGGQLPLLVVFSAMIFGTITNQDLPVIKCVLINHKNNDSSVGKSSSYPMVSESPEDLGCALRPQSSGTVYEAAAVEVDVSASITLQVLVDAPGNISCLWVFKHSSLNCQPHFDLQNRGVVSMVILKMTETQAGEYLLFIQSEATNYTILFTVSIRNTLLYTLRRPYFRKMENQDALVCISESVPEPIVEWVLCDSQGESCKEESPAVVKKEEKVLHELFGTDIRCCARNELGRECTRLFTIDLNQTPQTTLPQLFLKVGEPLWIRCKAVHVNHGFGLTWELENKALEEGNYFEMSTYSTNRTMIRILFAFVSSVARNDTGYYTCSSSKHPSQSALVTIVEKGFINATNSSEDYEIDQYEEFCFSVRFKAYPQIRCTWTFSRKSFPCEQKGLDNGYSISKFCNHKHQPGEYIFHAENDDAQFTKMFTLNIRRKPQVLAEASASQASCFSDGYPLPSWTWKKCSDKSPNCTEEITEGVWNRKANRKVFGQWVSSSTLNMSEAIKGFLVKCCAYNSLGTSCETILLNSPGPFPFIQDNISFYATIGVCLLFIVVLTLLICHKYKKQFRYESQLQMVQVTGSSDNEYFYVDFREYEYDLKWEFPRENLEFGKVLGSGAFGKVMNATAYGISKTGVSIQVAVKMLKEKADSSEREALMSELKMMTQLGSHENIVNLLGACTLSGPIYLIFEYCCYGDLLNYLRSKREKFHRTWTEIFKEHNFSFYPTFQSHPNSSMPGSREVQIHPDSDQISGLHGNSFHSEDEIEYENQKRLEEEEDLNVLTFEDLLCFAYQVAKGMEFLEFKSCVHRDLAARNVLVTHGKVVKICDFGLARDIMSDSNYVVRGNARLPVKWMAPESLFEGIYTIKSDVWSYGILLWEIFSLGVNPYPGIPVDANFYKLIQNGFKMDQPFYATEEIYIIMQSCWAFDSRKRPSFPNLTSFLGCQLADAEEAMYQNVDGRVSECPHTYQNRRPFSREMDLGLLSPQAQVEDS
As to the kind of experiment: FLT3-ITD biochemical kinase assay (AlphaScreen). In short, it runs like this: (§1)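 Recombinant kinase, biotin-GG(EEEEY)10EE 30 nM final, ATP 10 μM (D835Y) / 100 μM (ITD). Stop/detect: SA donor beads 20 min RT, then PY20 acceptor beads 60 min RT. AlphaScreen 580 nm signal; IC50.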

The target of another test is T2, FLT3-D835Y (Homo sapiens, UniProt P36888, D835Y).
T2 construct: purchased Invitrogen PV3967
T2 sequence (P36888 27-993 D835Y): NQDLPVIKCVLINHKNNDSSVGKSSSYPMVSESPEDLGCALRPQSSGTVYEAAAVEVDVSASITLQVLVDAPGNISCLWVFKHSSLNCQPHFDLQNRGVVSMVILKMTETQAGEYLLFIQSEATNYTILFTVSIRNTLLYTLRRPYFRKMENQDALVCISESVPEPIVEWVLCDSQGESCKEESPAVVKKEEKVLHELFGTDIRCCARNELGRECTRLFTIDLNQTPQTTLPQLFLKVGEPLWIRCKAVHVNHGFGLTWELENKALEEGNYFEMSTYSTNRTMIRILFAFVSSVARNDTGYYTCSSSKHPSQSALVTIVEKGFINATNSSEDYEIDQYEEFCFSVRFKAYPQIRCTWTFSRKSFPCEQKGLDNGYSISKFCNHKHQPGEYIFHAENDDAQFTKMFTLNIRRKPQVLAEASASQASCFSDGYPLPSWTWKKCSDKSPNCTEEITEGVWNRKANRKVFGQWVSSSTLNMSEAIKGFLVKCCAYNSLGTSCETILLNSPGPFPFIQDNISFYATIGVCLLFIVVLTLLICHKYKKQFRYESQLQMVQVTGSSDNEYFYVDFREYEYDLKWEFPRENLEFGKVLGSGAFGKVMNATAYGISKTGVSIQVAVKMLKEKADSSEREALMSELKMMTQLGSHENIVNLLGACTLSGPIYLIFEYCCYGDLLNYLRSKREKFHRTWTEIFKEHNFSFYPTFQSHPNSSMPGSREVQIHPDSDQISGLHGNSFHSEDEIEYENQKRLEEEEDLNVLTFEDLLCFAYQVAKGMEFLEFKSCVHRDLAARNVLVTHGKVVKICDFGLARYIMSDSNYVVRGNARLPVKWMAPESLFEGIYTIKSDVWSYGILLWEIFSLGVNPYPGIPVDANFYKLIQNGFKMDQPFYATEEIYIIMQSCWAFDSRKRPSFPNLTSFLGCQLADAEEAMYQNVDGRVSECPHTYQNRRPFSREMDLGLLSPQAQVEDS
The test is described as follows: FLT3-D835Y biochemical kinase assay (AlphaScreen). In short, it runs like this:
as §1

Sequence of c-Kit (P10721 26-976): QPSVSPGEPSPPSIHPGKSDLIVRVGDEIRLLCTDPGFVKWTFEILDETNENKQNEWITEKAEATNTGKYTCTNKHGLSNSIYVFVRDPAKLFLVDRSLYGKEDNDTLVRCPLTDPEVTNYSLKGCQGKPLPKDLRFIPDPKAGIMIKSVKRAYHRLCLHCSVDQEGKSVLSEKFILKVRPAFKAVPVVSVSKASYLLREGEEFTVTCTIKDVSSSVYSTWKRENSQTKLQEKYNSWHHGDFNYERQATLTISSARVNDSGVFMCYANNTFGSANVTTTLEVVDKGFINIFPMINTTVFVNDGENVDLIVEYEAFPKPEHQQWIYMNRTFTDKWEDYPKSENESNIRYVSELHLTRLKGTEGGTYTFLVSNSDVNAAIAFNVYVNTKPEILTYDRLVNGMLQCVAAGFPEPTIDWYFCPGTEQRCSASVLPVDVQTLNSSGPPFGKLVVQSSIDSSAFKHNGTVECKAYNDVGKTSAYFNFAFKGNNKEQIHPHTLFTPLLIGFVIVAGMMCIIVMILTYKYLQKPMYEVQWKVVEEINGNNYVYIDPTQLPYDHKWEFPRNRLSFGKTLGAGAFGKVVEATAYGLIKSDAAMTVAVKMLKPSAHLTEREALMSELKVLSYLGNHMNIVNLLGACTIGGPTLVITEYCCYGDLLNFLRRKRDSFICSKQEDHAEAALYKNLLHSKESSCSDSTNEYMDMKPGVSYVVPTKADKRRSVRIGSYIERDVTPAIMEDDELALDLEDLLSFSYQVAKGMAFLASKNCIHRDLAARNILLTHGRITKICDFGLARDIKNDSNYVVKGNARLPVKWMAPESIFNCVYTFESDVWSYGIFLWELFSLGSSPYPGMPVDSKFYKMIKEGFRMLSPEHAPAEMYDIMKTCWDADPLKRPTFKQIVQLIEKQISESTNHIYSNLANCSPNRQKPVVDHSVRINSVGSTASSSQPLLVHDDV

The IC50 is the concentration at which inhibition is half-maximal. Low values mean higher potency, high ones lower potency. As to `COc1cnc2[nH]cc(-c3ccc4ncn(C5CCCC5)c4c3)c2c1` [P-049, 1-cyclopentyl-6-(5-methoxy-1H-pyrrolo[2,3-b]pyridin-3-yl)benzimidazole], the IC50 on c-Kit fell in the range of 1 to 10 µM; against FLT3-ITD, 0.0001 to 1 µM; against FLT3-D835Y it was 0.0001 to 1 µM.
For `Cn1cnc2ccc(-c3c[nH]c4ncc(-c5cccc(C(=O)NC6CC6)c5)cc34)cc21` [P-090, N-cyclopropyl-3-[3-(3-methylbenzimidazol-5-yl)-1H-pyrrolo[2,3-b]pyridin-5-yl]benzamide], the IC50 at c-Kit is 10 to 200 µM; against FLT3-ITD, 0.0001 to 1 µM; against FLT3-D835Y, 0.0001 to 1 µM.
For `COc1cnc2[nH]cc(-c3ccc4ncnc(OC)c4c3)c2c1` [P-043, 4-methoxy-6-(5-methoxy-1H-pyrrolo[2,3-b]pyridin-3-yl)quinazoline], the values for the IC50 against c-Kit, on FLT3-ITD and on FLT3-D835Y were 1 to 10 µM, 0.0001 to 1 µM and 0.0001 to 1 µM, respectively.
`COC(=O)c1cc(-c2cnc3[nH]cc(-c4ccc5ncn(C)c5c4)c3c2)ccc1C` [P-119]: the IC50 lay in the range of 10 to 200 µM on c-Kit, 0.0001 to 1 µM on FLT3-ITD and 0.0001 to 1 µM against FLT3-D835Y.
As to `Cn1cnc2ccc(-c3c[nH]c4ncccc34)cc21` [P-009, 1-methyl-6-(1H-pyrrolo[2,3-b]pyridin-3-yl)benzimidazole], the IC50 at c-Kit was in the range of 1 to 10 µM; against FLT3-ITD, 0.0001 to 1 µM; at FLT3-D835Y it was 0.0001 to 1 µM.
On to `O=C(C1CC1)N1CCC=C(c2cnc3[nH]cc(-c4ccc5[nH]cnc5c4)c3c2)C1` [P-033, [5-[3-(1H-benzimidazol-5-yl)-1H-pyrrolo[2,3-b]pyridin-5-yl]-3,6-dihydro-2H-pyridin-1-yl]-cyclopropyl-methanone], for which the IC50 at c-Kit lay in the range of 10 to 200 µM; against FLT3-ITD, 0.0001 to 1 µM; on FLT3-D835Y, 1 to 10 µM.
The corresponding values for `c1cnc2[nH]cc(-c3ccc4[nH]nnc4c3)c2c1` [P-005, 5-(1H-pyrrolo[2,3-b]pyridin-3-yl)-1H-benzotriazole] are 10 to 200 µM, 1 to 10 µM and 10 to 200 µM.
For the compound `Cn1cnc2ccc(-c3c[nH]c4ncc(C#N)cc34)cc21` [P-020, 3-(3-methylbenzimidazol-5-yl)-1H-pyrrolo[2,3-b]pyridine-5-carbonitrile], the IC50 lay within 10 to 200 µM against c-Kit, 0.0001 to 1 µM against FLT3-ITD and 0.0001 to 1 µM against FLT3-D835Y.
For `CC(C)(C)n1cnc2ccc(-c3c[nH]c4ncc(C5=CCN(C(=O)C6CC6)C5)nc34)cc21` [P-127, [3-[7-(3-tert-butylbenzimidazol-5-yl)-5H-pyrrolo[2,3-b]pyrazin-2-yl]-2,5-dihydropyrrol-1-yl]-cyclopropyl-methanone], the IC50 was 1 to 10 µM at c-Kit, 0.0001 to 1 µM against FLT3-ITD and 0.0001 to 1 µM against FLT3-D835Y.
On to `CC(C)N1CCOc2ccc(-c3c[nH]c4ncc(-c5cccc(NS(C)(=O)=O)c5)nc34)cc21` [P-086, N-[3-[7-(4-isopropyl-2,3-dihydro-1,4-benzoxazin-6-yl)-5H-pyrrolo[2,3-b]pyrazin-2-yl]phenyl]methanesulfonamide], for which the IC50 against c-Kit was in the range of 10 to 200 µM; against FLT3-ITD it was 0.0001 to 1 µM; against FLT3-D835Y, 0.0001 to 1 µM.
For the compound `COc1cc(-c2cnc3[nH]cc(-c4ccc5ncn(C)c5c4)c3n2)ccn1` [P-045, 2-(2-methoxy-4-pyridyl)-7-(3-methylbenzimidazol-5-yl)-5H-pyrrolo[2,3-b]pyrazine], the IC50 lay within 10 to 200 µM at c-Kit, 0.0001 to 1 µM against FLT3-ITD and 0.0001 to 1 µM against FLT3-D835Y.
In the case of `COc1cc(-c2cnc3[nH]cc(-c4ccc5ncn(CC(F)(F)F)c5c4)c3n2)ccn1` [P-098, 2-(2-methoxy-4-pyridyl)-7-[3-(2,2,2-trifluoroethyl)benzimidazol-5-yl]-5H-pyrrolo[2,3-b]pyrazine], the results for the IC50 against c-Kit, against FLT3-ITD and at FLT3-D835Y were 10 to 200 µM, 0.0001 to 1 µM and 0.0001 to 1 µM, respectively.
